Columns and labels:
Assay type in all cases: in vivo
[1] = tested on: Abutilon theophrasti (ABUTH); assay: Post-emergence herbicidal action, greenhouse pot test; conditions: rated visually after about 3 weeks vs untreated controls, 100% = plants have died
How it was run: (§1)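 Activity was scored by eye about 3 weeks after treatment against untreated plants, where 100% means dead plants and 0% means no difference. Plants at the one-leaf stage received a foliar spray of WP or EC formulations in water plus 0.5% additive (600 l/ha, up to 20 g/ha). Plants were grown in sandy loam pots in a greenhouse for 2–3 weeks before spraying.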

[2] = tested on: Amaranthus retroflexus (AMARE); assay: as above; conditions: rated visually after about 3 weeks vs untreated controls, 100% = plants have died
How it was run: as §1

[3] = tested on: Pharbitis purpurea (PHBPU); assay: as above
How it was run: as §1

[4] = tested on: Polygonum convolvulus (POLCO); assay: as above
How it was run: as §1

Stellaria media (STEME) = assay: as above
How it was run: as §1

Veronica persica (VERPE) = assay: as above
How it was run: as §1

Viola tricolor (VIOTR) = assay: as above
How it was run: as §1

[5] = tested on: Alopecurus myosuroides (ALOMY); assay: Post-emergence herbicidal action, greenhouse pot test (also comparative test C); conditions: 20 g/ha, rated visually after about 3 weeks vs untreated controls, 100% = plants have died
How it was run: (§2)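 Greenhouse pot plants in sandy loam were sprayed post-emergence at the one-leaf stage (2–3 weeks after sowing) with WP or EC formulations plus 0.5% additive at 600 l/ha water. Activity was rated visually after about 3 weeks versus untreated controls (100% = dead, 0% = like control); rates were 20 g/ha or less, and 5 g/ha or less in the comparative test.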

[6] = tested on: Echinochloa crus-galli (ECHCG); assay: as above
How it was run: as §2

[7] = tested on: Matricaria inodora (MATIN); assay: as above
How it was run: as §2

Setaria viridis (SETVI) = assay: as above; conditions: for Post-emergence action against SETVI: 20 g/ha
How it was run: as §2

Brassica napus (BRSNW) = assay: Post-emergence crop plant compatibility, greenhouse pot test; conditions: 1.25 g/ha, vs untreated controls
How it was run: (§3)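 Greenhouse pot test; post-emergence foliar spray at one-leaf stage, WP or EC in water + 0.5% additive, 600 l/ha. Visual rating after ~3 wk, % relative to untreated (0–100%).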

Glycine max (GLXMA) = assay: as above
How it was run: as §3

[8] = tested on: Triticum aestivum (TRZAS); assay: as above; conditions: vs untreated controls
How it was run: as §3

Oryza sativa (ORYSA) = assay: Post-emergence crop plant compatibility, greenhouse pot test (also comparative test C); conditions: vs untreated controls
How it was run: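 Visual damage versus untreated plants (0% = like control, 100% = plants died) was scored about 3 weeks after a post-emergence spray in greenhouse pots. Treatment: one-leaf stage, WP or EC in water at 600 l/ha with 0.5% additive; a/b/c mark different dosages on the same crop.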

SMILES	Post-emergence action at 5 g/ha against ABUTH in % [1] [%]	Post-emergence action at 20 g/ha against ABUTH in % [1] [%]	Post-emergence action at 1.25 g/ha against AMARE in % [2] [%]	Post-emergence action at 5 g/ha against AMARE in % [2] [%]	Post-emergence action at 20 g/ha against AMARE in % [2] [%]	Post-emergence action against PHBPU in % ([3]; dosage 1.25 g/ha) [%]	Post-emergence action against PHBPU in % ([3]; dosage 5 g/ha) [%]	Post-emergence action against PHBPU in % ([3]; dosage 20 g/ha) [%]	Post-emergence action against POLCO in % ([4]; dosage 5 g/ha) [%]	Post-emergence action against POLCO in % ([4]; dosage 20 g/ha) [%]	Post-emergence action against STEME (Stellaria media (STEME); 5 g/ha) [%]	Post-emergence action against STEME (Stellaria media (STEME); 20 g/ha) [%]	Post-emergence action against VERPE (Veronica persica (VERPE); 1.25 g/ha) [%]	Post-emergence action against VERPE (Veronica persica (VERPE); 5 g/ha) [%]	Post-emergence action against VERPE (Veronica persica (VERPE); 20 g/ha) [%]	Post-emergence action against VIOTR (Viola tricolor (VIOTR); 1.25 g/ha) [%]	Post-emergence action against VIOTR (Viola tricolor (VIOTR); 5 g/ha) [%]	Post-emergence action against VIOTR (Viola tricolor (VIOTR); 20 g/ha) [%]	Post-emergence action at 20 g/ha against ALOMY in % [5] [%]	Post-emergence action against ECHCG in % ([6]; dosage 20 g/ha) [%]	other results
CC(Oc1ccccc1Sc1cc(-n2c(=O)cc(C(F)(F)F)n(C)c2=O)c(F)cc1Cl)C(=O)OCC1CCCO1 (mixture of isomers) [I.2-71]	100	100	100	100	100	80	100	100	100	100	100	100	100	100	100	100	100	100	80	80	Post-emergence action against MATIN in % ([7]; dosage 5 g/ha): 80%; Post-emergence action against MATIN in % ([7]; dosage 20 g/ha): 90%; Post-emergence action against SETVI (Setaria viridis (SETVI)): 100%; Post-emergence action against SETVI in % (Setaria viridis (SETVI); dosage 1.25 g/ha): 90%; Post-emergence action against SETVI in % (Setaria viridis (SETVI); dosage 5 g/ha): 100%; Post-emergence action against BRSNW (crop plant compatibility) (Brassica napus (BRSNW)): 10%; Post-emergence action against GLXMA in % (Glycine max (GLXMA); 1.25 g/ha): 10%; Post-emergence action against TRZAS (crop plant compatibility) ([8]; 1.25 g/ha): 20%; Post-emergence action against TRZAS (crop plant compatibility) ([8]; 5 g/ha): 20%; Post-emergence action against ORYSA (crop plant compatibility) (Oryza sativa (ORYSA); 1.25 g/ha): 20%; Post-emergence action against ORYSA (crop plant compatibility) (Oryza sativa (ORYSA); 5 g/ha): 20%
CC(Oc1ccccc1Sc1cc(-n2c(=O)cc(C(F)(F)F)n(C)c2=O)c(F)cc1Cl)C(=O)OCC1CCOC1 (mixture of isomers) [I.2-72]	100	100	90	100	100	100	100	100	80	100	100	100	100	100	100	100	100	100	90	80	Post-emergence action against ECHCG in % ([6]; dosage 5 g/ha): 80%; Post-emergence action against MATIN in % ([7]; dosage 20 g/ha): 100%; Post-emergence action against SETVI (Setaria viridis (SETVI)): 100%; Post-emergence action against SETVI in % (Setaria viridis (SETVI); dosage 1.25 g/ha): 90%; Post-emergence action against SETVI in % (Setaria viridis (SETVI); dosage 5 g/ha): 100%; Post-emergence action against BRSNW (crop plant compatibility) (Brassica napus (BRSNW)): 10%; Post-emergence action against GLXMA in % (Glycine max (GLXMA); 1.25 g/ha): 0%; Post-emergence action against GLXMA in % (Glycine max (GLXMA); 5 g/ha): 10%; Post-emergence action against TRZAS (crop plant compatibility) ([8]; 1.25 g/ha): 20%; Post-emergence action against TRZAS (crop plant compatibility) ([8]; 5 g/ha): 20%; Post-emergence action against ORYSA (crop plant compatibility) (Oryza sativa (ORYSA); 1.25 g/ha): 0%; Post-emergence action against ORYSA (crop plant compatibility) (Oryza sativa (ORYSA); 5 g/ha): 20%

Reference: US20240025862A1, “SUBSTITUTED N-PHENYLURACILS AND SALTS THEREOF, AND USE THEREOF AS HERBICIDAL ACTIVE SUBSTANCES” (Bayer Aktiengesellschaft, priority 2020, published 2024)
